“And” between values parts separate entries of the source, which are not always exact repeats. Equal values may be shown once.
Experiments:
[1] = test system: OVCAR8 cells; test: Intraperitoneal tumor model, bioluminescence, OVCAR8; type: in vivo, human EOC cells in BALB/c-Nude mice; conditions: SPC25-silenced OVCAR8, CDDP
Text: (§1) Subsequently, we selected 4 representative EOC cell lines (Figure S1F,G, Supporting Information) and validated the role of SPC25 in mediating platinum resistance in EOC through a series of in vitro and in vivo experiments. […] To further establish an EOC mouse model, we intraperitoneally injected BALB/c‐Nude mice with EOC cells with stable luciferase expression. CDDP treatment (three times per week, a week as a cycle) was initiated when the bioluminescence signal reached 2 × 10^7 p/s/cm^2/sr.
(§2) In the intraperitoneal tumor model, 1 × 10^6 of the indicated cells stably expressing luciferase were injected intraperitoneally into the mice. Treatment with saline (Vehicle), CDDP (5 mg/kg, 3 times per week for 1 week), CBP1 (10 mg/kg, once in 2 days), or a combination of CDDP (5 mg/kg, 3 times per week for 1 week) and CBP1 (10 mg/kg, once in 2 days) was initiated when the bioluminescence signal reached 2 × 10^7 p/s/cm^2/sr for 6 weeks of continuous treatment cycles. The mice were sacrificed when they became moribund, as determined by an observer blinded to the treatment. Finally, their tumors were excised for qRT‐PCR and Western blotting.

[2] = test system: OVCAR8 cells; test: Survival of intraperitoneal tumor-bearing nude mice, OVCAR8; type: in vivo, human EOC cells in BALB/c-Nude mice; design: key to Survival status: 0: Alive; 1: Dead; conditions: for Survival status / Survival time (Days after CDDP treatment): Balb/c Nude mice; for Survival time (Days after CDDP treatment): >= means alive at this day
Text: as §1, §2

[3] = test system: OVCAR3 xenografted tumor tissues; test: TUNEL assay in intraperitoneal xenografted tumor tissues, OVCAR3; type: in vivo, human EOC cells in BALB/c-Nude mice; conditions: for TUNEL+ cell (%): CDDP-treated mice, #1-#6
Procedure: as §2
TUNEL Assay: The TUNEL staining procedure was conducted on the DeadEnd Fluorometric TUNEL System (#G3250; Promega), according to the manufacturer’s instructions. In brief, paraffin-embedded sections were baked at 65°C for 60 min, followed by three washes in a xylene bath. The sections were then washed in a series of absolute ethanol, 95% ethanol, and 70% ethanol, and finally, in PBS. Then, each section was treated with proteinase K at 37°C for 30 min and washed three times with PBS. Thereafter, the sections were incubated with […] (containing Biotin-11-dUTP and TdT Enzyme) at 37 ℃ for 1 h in the dark, followed by three PBS washes. The samples were subsequently incubated with streptavidin–fluorescein at 37 ℃ for 30 min in the dark, followed by three washes with PBS. DAPI was used to stain the nucleus. Finally, the experimental outcomes were observed under a fluorescence microscope, and the percentages of TUNEL-positive cells were quantified from 10 randomly selected fields.

[4] = test system: OVCAR3 cells; test: Cell Counting Kit-8 viability, OVCAR3; type: cell-based, human; conditions: SPC25-overexpressing OVCAR3
Procedure: (§3) Cell Viability Assay: The indicated cells were seeded into 96-well plates at a density of 4 × 10^3 cells per well. Next, the Cell Counting Kit-8 reagent (Dojindo) was added to the wells, followed by incubation at 37°C for 2 h in the dark, after which the optical density at 450 nm was determined on a microplate reader (EPOCH2; BioTek, USA). Each cell line was represented using triplicate wells, and the experiment was repeated three times.

[5] = test system: OVCAR8 cells; test: Cell Counting Kit-8 viability, OVCAR8; type: cell-based, human; conditions: SPC25-silenced OVCAR8
Procedure: as §3

[6] = test system: COV644 cells; test: Cell Counting Kit-8 viability, COV644; type: cell-based, human; conditions: SPC25-overexpressing COV644
Procedure: as §3

[7] = test system: SKOV3 cells; test: Cell Counting Kit-8 viability, SKOV3; type: cell-based, human; conditions: SPC25-silenced SKOV3
Procedure: as §3

[8] = test system: OVCAR3 cells; test: Annexin V/PI apoptosis, OVCAR3; type: cell-based, human; conditions: for PI+/AnnexinV+: replicates #1-#3
Procedure: (§4) Fluorescence-Activated Cell Sorting Assay: For apoptosis analysis, we used an Annexin V-FITC/PI Apoptosis Detection Kit (#A211-01; Vazyme Biotech), according to the manufacturer’s instructions. We considered the total proportion of Annexin V-positive cells (quadrants II and III) to be the apoptotic rate, regardless of the PI status. All samples were analyzed on a flow cytometer (cytoFLEX LX; Beckman Coulter, Indianapolis, IN, USA), and percentages of apoptotic cells were analyzed using CytExpert (Beckman Coulter).

[9] = test system: COV644 cells; test: Annexin V/PI apoptosis, COV644; type: cell-based, human; conditions: for PI+/AnnexinV+: replicates #1-#3
Procedure: as §4

[10] = test system: SKOV3 cells; test: Annexin V/PI apoptosis, SKOV3; type: cell-based, human; conditions: replicates #1-#3
Procedure: as §4

[11] = test system: caspase-3 and PARP; test: Western blotting of apoptosis-related proteins in xenografted tumor tissues; type: in vivo, human EOC cells in BALB/c-Nude mice; conditions: SPC25-overexpressing OVCAR3 tumors, CDDP
Procedure: as §2
Western Blotting: Western blotting was performed using primary antibodies detailed in Table S5 (Supporting Information). Western blotting grayscale analyses were performed using ImageJ (version 2.0.0; NIH, Bethesda, MD, USA). β-Catenin expression was quantified by determining the gray level of each band using Image J and normalized using α-tubulin.

[12] = test system: SPC25; test: Expression of SPC25 across different generation CDX tumor of Blab/c Nude mice in CDDP group (Ct); type: in vivo; conditions: for Gapdh (Ct): Gapdh_rep1-3, single replicates; for Expression of SPC25 (Ct): SPC25_rep1-3, single replicates
Text: Supplement ADVS-11-2406688-s001.zip/SourceData.xlsx, sheet "Fig1E-1G,S1F" | column: Expression of SPC25 in CDDP-resistant and Parental CDX tumor of Blab/c Nude mice (Ct)

[NH2][Pt]([NH2])([Cl])[Cl] [CDDP, cisplatin]
CDDP sensitivity, apoptotic index and survival [1]: increase in CDDP sensitivity and apoptotic index, as well as prolonged survival
Survival status ([2]; at the day of E151, animal 1): 1
Survival status ([2]; at the day of E152, animal 2): 1
Survival status ([2]; at the day of E153, animal 3): 1
Survival status ([2]; at the day of E154, animal 4): 1
Survival status ([2]; at the day of E155, animal 5): 1
Survival status ([2]; at the day of E156, animal 6): 1
Survival status ([2]; at the day of E157, animal 7): 1
Survival time (Days after CDDP treatment) ([2]; animal 1): 59 days
Survival time (Days after CDDP treatment) ([2]; animal 2): 50 days
Survival time (Days after CDDP treatment) ([2]; animal 3): 52 days
Survival time (Days after CDDP treatment) ([2]; animal 4): 56 days
Survival time (Days after CDDP treatment) ([2]; animal 5): 57 days
Survival time (Days after CDDP treatment) ([2]; animal 6): 60 days
Survival time (Days after CDDP treatment) ([2]; animal 7): 61 days
Survival, days after CDDP treatment ([2]; OVCAR8 sh-SPC25#1, status 0, individual mice): 63 days and 79 days and 89 days
Survival, days after CDDP treatment ([2]; OVCAR8 sh-SPC25#1, status 1, individual mice): 72 days and 59 days and 60 days
Survival, days after CDDP treatment ([2]; OVCAR8 sh-Scramble, status 1, individual mice): 54 days and 50 days and 55 days and 53 days and 57 days
TUNEL+ cell (%) ([3]; OVCAR3 SPC25-overexpressing): 8.84% and 3.44% and 6.27% and 4.43% and 7.25% and 8.02%
TUNEL+ cell (%) ([3]; OVCAR3 Vector): 31.16% and 27.27% and 21.88% and 26.01% and 32.74% and 29.56%
TUNEL-positive cells ([3]; SPC25-overexpressing OVCAR3, CDDP): reduced number
cell growth in presence of CDDP [4]: significantly promoted growth
CDDP sensitivity [5]: enhanced CDDP sensitivity
cell growth in presence of CDDP [6]: significantly promoted growth
CDDP sensitivity [7]: enhanced CDDP sensitivity
PI+/AnnexinV+ ([8]; OVCAR3 SPC25, CDDP 10μM): 9.75 and 8.73 and 6.45
PI+/AnnexinV+ ([8]; OVCAR3 Vector, CDDP 10μM): 21.37 and 25.13 and 28.24
CDDP-induced apoptosis ([8]; SPC25-overexpressing OVCAR3): considerably reduced
PI+/AnnexinV+ ([9]; COV644 SPC25, CDDP 10μM): 9.53 and 5.89 and 7.71
PI+/AnnexinV+ ([9]; COV644 Vector, CDDP 10μM): 23.38 and 26.97 and 27.94
CDDP-induced apoptosis ([9]; SPC25-overexpressing COV644): considerably reduced
PI+/AnnexinV+ ([10]; SKOV3 Scramble, CDDP 10μM): 8.18 and 6.89 and 9.75
PI+/AnnexinV+ ([10]; SKOV3 sh-SPC25#1, CDDP 10μM): 30.36 and 26.95 and 22.58
PI+/AnnexinV+ ([10]; SKOV3 sh-SPC25#2, CDDP 10μM): 29.63 and 24.64 and 23.77
activation of caspase-3 and PARP [11]: lowered activation
Gapdh (Ct) ([12]; 1st generation): 17.013 Ct and 17.354 Ct and 17.197 Ct
Expression of SPC25 (Ct) ([12]; 1st generation): 27.496 Ct and 27.737 Ct and 27.628 Ct
Gapdh (Ct) ([12]; 2nd generation): 16.968 Ct and 16.875 Ct and 17.154 Ct
Expression of SPC25 (Ct) ([12]; 2nd generation): 26.835 Ct and 27.032 Ct and 26.963 Ct
Gapdh (Ct) ([12]; 3rd generation): 16.826 Ct and 17.002 Ct and 16.952 Ct
Expression of SPC25 (Ct) ([12]; 3rd generation): 26.448 Ct and 26.397 Ct and 26.314 Ct
Gapdh (Ct) ([12]; 4th generation): 16.654 Ct and 16.763 Ct and 16.924 Ct
Expression of SPC25 (Ct) ([12]; 4th generation): 25.574 Ct and 25.623 Ct and 25.706 Ct
